One may read the MIC as the lowest concentration found to suppress growth. The IC50 is the midpoint of a concentration-inhibition curve.

≈ marks a conversion by molar mass, not a printed value. Calls of active or inactive are those of the source. No cut-off for these calls is given here. Where a SMILES comes first, the peptide text is derived from it. [ ]: non-standard residue; d: D form. The star is where a group is joined. ξ: configuration not given here. Lauroyl = CCCCCCCCCCCC(=O)*; ξDab = NCCC(N)C(=O)O; ξDap = NCC(N)C(=O)O

System in the first data set: not listed separately
Put plainly: Critical micelle concentration of compound.
Settings: not given
It is filed as physicochemical.
For the molecule `CCCCCCCCCCCC(=O)NCCC(NC(=O)CCCCCCCCCCC)C(=O)N[C@@H](CCCCN)C(=O)N[C@@H](CCCCN)C(=O)N[C@@H](CCCCN)C(N)=O` (some centres not stated) (Lauroyl-[ξDab](Lauroyl)KKK-NH2), the CMC turned out to be 1.25 mM.
Turning to `CCCCCCCCCCCC(=O)NCC(NC(=O)CCCCCCCCCCC)C(=O)N[C@@H](CCCCN)C(=O)N[C@@H](CCCCN)C(=O)N[C@@H](CCCCN)C(N)=O` (some centres not stated) (Lauroyl-[ξDap](Lauroyl)KKK-NH2), the CMC was determined as 1.41 mM.

The test system of a further data set is Lipid bilayer. Put plainly: Binding affinity to POPC large unilamellar vesicle at 0.2 mM by ITC method.
Settings: not given
In general terms: Isothermal titration calorimetry measures the heat released or taken up as one component is titrated into another.
As to `CCCCCCCCCCCC(=O)NCCC(NC(=O)CCCCCCCCCCC)C(=O)N[C@@H](CCCCN)C(=O)N[C@@H](CCCCN)C(=O)N[C@@H](CCCCN)C(N)=O` (some centres not stated) (Lauroyl-[ξDab](Lauroyl)KKK-NH2), the result was inactive.
As to `CCCCCCCCCCCC(=O)NCC(NC(=O)CCCCCCCCCCC)C(=O)N[C@@H](CCCCN)C(=O)N[C@@H](CCCCN)C(=O)N[C@@H](CCCCN)C(N)=O` (some centres not stated) (Lauroyl-[ξDap](Lauroyl)KKK-NH2), the result was inactive.

System in a further data set: not listed separately
Put plainly: Hemolytic activity in human RBC induction of hemolysis at 128 ug/ml at MIC after 60 mins by spectrophotometric method relative to control. The conditions noted are these: human red blood cells (erythrocytes), read-out: Activity. It is filed as cell-based, Erythrocyte.
For `CCCCCCCCCCCC(=O)NCCC(NC(=O)CCCCCCCCCCC)C(=O)N[C@@H](CCCCN)C(=O)N[C@@H](CCCCN)C(=O)N[C@@H](CCCCN)C(N)=O` (some centres not stated) (Lauroyl-[ξDab](Lauroyl)KKK-NH2), the hemolysis at 1 h, 128 ug/ml was 13%.
For the molecule `CCCCCCCCCCCC(=O)NCC(NC(=O)CCCCCCCCCCC)C(=O)N[C@@H](CCCCN)C(=O)N[C@@H](CCCCN)C(=O)N[C@@H](CCCCN)C(N)=O` (some centres not stated) (Lauroyl-[ξDap](Lauroyl)KKK-NH2), the hemolysis at 1 h, 128 ug/ml was found to be 50%.

The next data set relates to Staphylococcus epidermidis. Put plainly: Antibacterial activity against Staphylococcus epidermidis PCM 2118 assessed as growth inhibition measured after 18 hrs by CLSI based method. It is filed as functional. The conditions noted are these: PCM 2118, 18 h.
For `CCCCCCCCCCCC(=O)NCCC(NC(=O)CCCCCCCCCCC)C(=O)N[C@@H](CCCCN)C(=O)N[C@@H](CCCCN)C(=O)N[C@@H](CCCCN)C(N)=O` (some centres not stated) (Lauroyl-[ξDab](Lauroyl)KKK-NH2), the MIC came out at 8 µg/mL (≈ 9.23 µM).
As to `CCCCCCCCCCCC(=O)NCC(NC(=O)CCCCCCCCCCC)C(=O)N[C@@H](CCCCN)C(=O)N[C@@H](CCCCN)C(=O)N[C@@H](CCCCN)C(N)=O` (some centres not stated) (Lauroyl-[ξDap](Lauroyl)KKK-NH2), the MIC was determined as 8 µg/mL (≈ 9.39 µM).

System in another data set: not listed separately
Put plainly: Critical micelle concentration of compound by ITC method.
Settings: not given
It is filed as physicochemical.
Consider `CCCCCCCCCCCC(=O)NCCC(NC(=O)CCCCCCCCCCC)C(=O)N[C@@H](CCCCN)C(=O)N[C@@H](CCCCN)C(=O)N[C@@H](CCCCN)C(N)=O` (some centres not stated) (Lauroyl-[ξDab](Lauroyl)KKK-NH2), for which the CMC is recorded as 1.34 mM.
In the case of `CCCCCCCCCCCC(=O)NCC(NC(=O)CCCCCCCCCCC)C(=O)N[C@@H](CCCCN)C(=O)N[C@@H](CCCCN)C(=O)N[C@@H](CCCCN)C(N)=O` (some centres not stated) (Lauroyl-[ξDap](Lauroyl)KKK-NH2), the CMC is 1.53 mM.

System in a further data set: not listed separately
Put plainly: Surfactant-like property of compound at CMC.
Settings: not given
It is filed as physicochemical.
Molecule `CCCCCCCCCCCC(=O)NCCC(NC(=O)CCCCCCCCCCC)C(=O)N[C@@H](CCCCN)C(=O)N[C@@H](CCCCN)C(=O)N[C@@H](CCCCN)C(N)=O` (some centres not stated) (Lauroyl-[ξDab](Lauroyl)KKK-NH2) registered a gammaCMC of 40 mN/meter.
On the same count and under the same terms, with `CCCCCCCCCCCC(=O)NCC(NC(=O)CCCCCCCCCCC)C(=O)N[C@@H](CCCCN)C(=O)N[C@@H](CCCCN)C(=O)N[C@@H](CCCCN)C(N)=O` (some centres not stated) (Lauroyl-[ξDap](Lauroyl)KKK-NH2) the figure was 41.3 mN/meter.

Another data set relates to Pseudomonas aeruginosa. Put plainly: Antibacterial activity against Pseudomonas aeruginosa ATCC 9027 assessed as growth inhibition measured after 18 hrs by CLSI based method. It is filed as functional. The conditions noted are these: ATCC 9027, 18 h.
As for `CCCCCCCCCCCC(=O)NCCC(NC(=O)CCCCCCCCCCC)C(=O)N[C@@H](CCCCN)C(=O)N[C@@H](CCCCN)C(=O)N[C@@H](CCCCN)C(N)=O` (some centres not stated) (Lauroyl-[ξDab](Lauroyl)KKK-NH2), the MIC worked out at 64 µg/mL (≈ 73.9 µM).
Regarding `CCCCCCCCCCCC(=O)NCC(NC(=O)CCCCCCCCCCC)C(=O)N[C@@H](CCCCN)C(=O)N[C@@H](CCCCN)C(=O)N[C@@H](CCCCN)C(N)=O` (some centres not stated) (Lauroyl-[ξDap](Lauroyl)KKK-NH2), the MIC came out at 128 µg/mL (≈ 150 µM).

A further data set relates to Candida albicans. Put plainly: Antifungal activity against Candida albicans ATCC 10231 assessed as growth inhibition measured after 48 hrs by CLSI based method. It is filed as functional. The conditions noted are these: ATCC 10231, 48 h.
Take `CCCCCCCCCCCC(=O)NCCC(NC(=O)CCCCCCCCCCC)C(=O)N[C@@H](CCCCN)C(=O)N[C@@H](CCCCN)C(=O)N[C@@H](CCCCN)C(N)=O` (some centres not stated) (Lauroyl-[ξDab](Lauroyl)KKK-NH2): the MIC is 16 µg/mL (≈ 18.5 µM).
`CCCCCCCCCCCC(=O)NCC(NC(=O)CCCCCCCCCCC)C(=O)N[C@@H](CCCCN)C(=O)N[C@@H](CCCCN)C(=O)N[C@@H](CCCCN)C(N)=O` (some centres not stated) (Lauroyl-[ξDap](Lauroyl)KKK-NH2): the MIC came to 8 µg/mL (≈ 9.39 µM).

The next data set has as its system Staphylococcus aureus. Put plainly: Antibacterial activity against Staphylococcus aureus ATCC 25923 assessed as growth inhibition measured after 18 hrs by CLSI based method. It is filed as functional. The conditions noted are these: ATCC 25923, 18 h.
Turning to `CCCCCCCCCCCC(=O)NCCC(NC(=O)CCCCCCCCCCC)C(=O)N[C@@H](CCCCN)C(=O)N[C@@H](CCCCN)C(=O)N[C@@H](CCCCN)C(N)=O` (some centres not stated) (Lauroyl-[ξDab](Lauroyl)KKK-NH2), the MIC is 64 µg/mL (≈ 73.9 µM).
Turning to `CCCCCCCCCCCC(=O)NCC(NC(=O)CCCCCCCCCCC)C(=O)N[C@@H](CCCCN)C(=O)N[C@@H](CCCCN)C(=O)N[C@@H](CCCCN)C(N)=O` (some centres not stated) (Lauroyl-[ξDap](Lauroyl)KKK-NH2), the MIC is 32 µg/mL (≈ 37.5 µM).

The next data set concerns Escherichia coli. Put plainly: Antibacterial activity against Escherichia coli ATCC 25922 assessed as growth inhibition measured after 18 hrs by CLSI based method. It is filed as functional. The note with it: ATCC 25922, 18 h.
`CCCCCCCCCCCC(=O)NCCC(NC(=O)CCCCCCCCCCC)C(=O)N[C@@H](CCCCN)C(=O)N[C@@H](CCCCN)C(=O)N[C@@H](CCCCN)C(N)=O` (some centres not stated) (Lauroyl-[ξDab](Lauroyl)KKK-NH2): the MIC came out at 64 µg/mL (≈ 73.9 µM).
For `CCCCCCCCCCCC(=O)NCC(NC(=O)CCCCCCCCCCC)C(=O)N[C@@H](CCCCN)C(=O)N[C@@H](CCCCN)C(=O)N[C@@H](CCCCN)C(N)=O` (some centres not stated) (Lauroyl-[ξDap](Lauroyl)KKK-NH2), the MIC is 256 µg/mL (≈ 300 µM).

For another data set, the system named is HaCaT. Put plainly: Cytotoxicity against human HaCaT cells assessed as growth inhibition measured after 24 hrs by MTT assay. It is filed as cell-based.
Settings: not given
As for `CCCCCCCCCCCC(=O)NCCC(NC(=O)CCCCCCCCCCC)C(=O)N[C@@H](CCCCN)C(=O)N[C@@H](CCCCN)C(=O)N[C@@H](CCCCN)C(N)=O` (some centres not stated) (Lauroyl-[ξDab](Lauroyl)KKK-NH2), the IC50 stood at 30.7 µg/mL (≈ 35.4 µM).
For `CCCCCCCCCCCC(=O)NCC(NC(=O)CCCCCCCCCCC)C(=O)N[C@@H](CCCCN)C(=O)N[C@@H](CCCCN)C(=O)N[C@@H](CCCCN)C(N)=O` (some centres not stated) (Lauroyl-[ξDap](Lauroyl)KKK-NH2), the IC50 came to 43.3 µg/mL (≈ 50.8 µM).

Source of the values: ChEMBL document CHEMBL4406885, “Effect of self-assembly on antimicrobial activity of double-chain short cationic lipopeptides” (Bioorg Med Chem, 2019).
